The text below walks through data of article PMC9291816 (Clinical Pharmacology and Therapeutics, 2021).

The conditions of series [1]: cited from earlier work.
Series [2] has as its system CYP3A. The following applies: both, human, plasma, po, 2 mg, probe midazolam.
Series [3] in a line: Clinical DDI study in healthy adults. The following applies: for AUC(0-t) / Cmax: both, human, plasma, oral. It counts as in vivo, human.
For series [4] the following is noted: PBPK model; cited from earlier work.
Another series deals with infants with Type 1 SMA. The following applies: cited from earlier work.
For series [5], the system named is CYP3A. Details: species or system human. The following applies: refined to recover observed midazolam AUCR; 1/18 of the in vitro k inact.

Take `Cc1ncc2n1-c1ccc(Cl)cc1C(c1ccccc1F)=NC2` [midazolam]: the “UGT1A4 contribution to clearance” value in series [1] (adults) was 1–2%. Moreover, the “FG (intestinal availability)” value in series [1] is listed as 0.55. In the series on CYP3A [2], this molecule returned an AUC(0-t) of 19.9 ng·h/mL and a peak concentration (Cmax) of 7.65 ng/mL.
With `Cc1cn2nc(-c3cc(=O)n4cc(N5CCNC6(CC6)C5)ccc4n3)cc(C)c2n1` [risdiplam, Risdiplam], the tolerability result in series [3] (14 days, alone and coadministered with midazolam, healthy adults) is on record as “well tolerated”. Further, in series [3] (5 mg), the AUC(0-t) was 1250 ng·h/mL and the Cmax came to 78.6 ng/mL. Also, in series [3] (8 mg), the AUC(0-t) turned out to be 1730 ng·h/mL and the Cmax is 113 ng/mL. Further, in series [4], the “hepatic intrinsic CL via CYP3A share of clearance” value is on record as 20%, the “hepatic intrinsic CL via FMO3 share of clearance” value is recorded as 75% and the “renal CL (CLR) share of clearance” value is 5%. Besides, the “increase in the SMN protein” value in the series on infants with Type 1 SMA is “approximately twofold”. Also, the “in vivo k inact” value in the series on CYP3A [5] is given as “in vivo k inact ^e = 0.22/hour”.

By AUC(0-t) is commonly meant exposure summed from dosing to a finite time, without extrapolation to infinity. Low readings indicate low exposure, high ones high exposure. By Cmax is commonly meant the highest concentration seen after dosing.
